From PubChem BioAssay AID1963980 (Molecular Pharmacology Branch, DTP, NCI, 2024)

System: 475296-252-R-J1-PDC spheroid viability
Assay: Anticancer human tumor 475296-252-R-J1-PDC patient-derived rectal carcinoma cell line growth inhibition [PI3K]
Conditions: spheroids with HUVEC and MSC; for IC50: curve of first compound; for viability, T/C: stronger effect = lower value
Procedure, shortened: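 We assembled tumor spheroids that included a stromal compartment of HUVEC and MSCs, then exposed them to targeted agents alone and together with PI3K pathway inhibitors. Concentration series descended by half-log from clinically achievable Cmax levels. Viability served as the endpoint.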
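Further: spheroids exposed to agents for seven days before readout.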

Q: Which IC50 (second compound 0.0316 µM) does the source give for `Cn1cnc2c(F)c(Nc3ccc(Br)cc3Cl)c(C(=O)NOCCO)cc21` + Cc1nc(NC(=O)N2CCCC2C(N)=O)sc1-c1ccnc(C(C)(C)C(F)(F)F)c1 here?
A: The IC50 was over 3000 nM.

Q: And the IC50 (second compound 0.1 µM)?
A: The IC50 was over 3000 nM.

Q: And the IC50 (second compound 0.316 µM)?
A: The IC50 was 2990 nM.

Q: What about the IC50 (second compound 1 µM) of the same compound?
A: Its IC50 is 760 nM.

Q: What about the IC50 (second compound 3.16 µM) of the same compound?
A: Its IC50 is 463 nM.

Q: And the IC50 (second compound 10 µM)?
A: The IC50 was 77 nM.

Q: What about the viability, T/C (second compound 0.0316 µM, first compound 0.00949 µM) of the same compound?
A: Its viability, T/C is 102%.

Q: And the viability, T/C (second compound 0.0316 µM, first compound 0.03 µM)?
A: The viability, T/C was 81.9%.

Q: And the viability, T/C (second compound 0.0316 µM, first compound 0.0949 µM)?
A: Its viability, T/C is 85.7%.

Q: What about the viability, T/C (second compound 0.0316 µM, first compound 0.3 µM) of the same compound?
A: The viability, T/C was 75.7%.

Q: What about the viability, T/C (second compound 0.0316 µM, first compound 0.949 µM) of the same compound?
A: The viability, T/C was 76.6%.

Q: What about the viability, T/C (second compound 0.0316 µM, first compound 3 µM) of the same compound?
A: The viability, T/C was 61.8%.

Q: What about the viability, T/C (second compound 0.1 µM, first compound 0.00949 µM) of the same compound?
A: Its viability, T/C is 91.7%.

Q: And the viability, T/C (second compound 0.1 µM, first compound 0.03 µM)?
A: The viability, T/C was 78.7%.

Q: And the viability, T/C (second compound 0.1 µM, first compound 0.0949 µM)?
A: The viability, T/C was 93.2%.

Q: What about the viability, T/C (second compound 0.1 µM, first compound 0.3 µM) of the same compound?
A: The viability, T/C was 73.2%.

Q: What about the viability, T/C (second compound 0.1 µM, first compound 0.949 µM) of the same compound?
A: Its viability, T/C is 74.6%.

Q: What about the viability, T/C (second compound 0.1 µM, first compound 3 µM) of the same compound?
A: Its viability, T/C is 58%.

Q: What about the viability, T/C (second compound 0.316 µM, first compound 0.00949 µM) of the same compound?
A: Its viability, T/C is 89.4%.

Q: What about the viability, T/C (second compound 0.316 µM, first compound 0.03 µM) of the same compound?
A: Its viability, T/C is 89.8%.

Q: And the viability, T/C (second compound 0.316 µM, first compound 0.0949 µM)?
A: The viability, T/C was 73.4%.

Q: And the viability, T/C (second compound 0.316 µM, first compound 0.3 µM)?
A: The viability, T/C was 72.9%.

Q: And the viability, T/C (second compound 0.316 µM, first compound 0.949 µM)?
A: Its viability, T/C is 64.3%.

Q: And the viability, T/C (second compound 0.316 µM, first compound 3 µM)?
A: The viability, T/C was 48.3%.

Q: And the viability, T/C (second compound 1 µM, first compound 0.00949 µM)?
A: Its viability, T/C is 79.9%.

Q: What about the viability, T/C (second compound 1 µM, first compound 0.03 µM) of the same compound?
A: Its viability, T/C is 89.3%.

Q: And the viability, T/C (second compound 1 µM, first compound 0.0949 µM)?
A: Its viability, T/C is 69%.

Q: What about the viability, T/C (second compound 1 µM, first compound 0.3 µM) of the same compound?
A: The viability, T/C was 63.9%.

Q: What about the viability, T/C (second compound 1 µM, first compound 0.949 µM) of the same compound?
A: Its viability, T/C is 47%.

Q: What about the viability, T/C (second compound 1 µM, first compound 3 µM) of the same compound?
A: Its viability, T/C is 35.9%.

Q: What about the viability, T/C (second compound 3.16 µM, first compound 0.00949 µM) of the same compound?
A: The viability, T/C was 75.8%.

Q: What about the viability, T/C (second compound 3.16 µM, first compound 0.03 µM) of the same compound?
A: Its viability, T/C is 73.6%.

Q: What about the viability, T/C (second compound 3.16 µM, first compound 0.0949 µM) of the same compound?
A: Its viability, T/C is 66.2%.

Q: What about the viability, T/C (second compound 3.16 µM, first compound 0.3 µM) of the same compound?
A: The viability, T/C was 59.9%.

Q: And the viability, T/C (second compound 3.16 µM, first compound 0.949 µM)?
A: Its viability, T/C is 36.4%.

Q: And the viability, T/C (second compound 3.16 µM, first compound 3 µM)?
A: Its viability, T/C is 23.8%.

Q: And the viability, T/C (second compound 10 µM, first compound 0.00949 µM)?
A: The viability, T/C was 83.9%.

Q: And the viability, T/C (second compound 10 µM, first compound 0.03 µM)?
A: Its viability, T/C is 67%.

Q: What about the viability, T/C (second compound 10 µM, first compound 0.0949 µM) of the same compound?
A: The viability, T/C was 45.6%.

Q: And the viability, T/C (second compound 10 µM, first compound 0.3 µM)?
A: Its viability, T/C is 28.2%.

Q: And the viability, T/C (second compound 10 µM, first compound 0.949 µM)?
A: Its viability, T/C is 18.7%.

Q: And the viability, T/C (second compound 10 µM, first compound 3 µM)?
A: The viability, T/C was 5.93%.
